Laboratory results reported in patent publication US10222368B2 (priority 2012, dated 2019).

What was measured:
α7nAChR-FLNA complex = target: T1, α7nAChR-FLNA complex (Homo sapiens, UniProt P21333); assay: α7nAChR/FLNA ELISA of lymphocyte lysates (Example 7); format: cell-based; conditions: for Optical Density α7nAChR/FLNA (OD450), average: AD lymphocytes + 10 μM C0105, four replicate studies, background subtracted
T1 construct: To determine the levels of FLNA-α7nAChR, FLNA-TLR4 and α7nAChR-Aβ42 complexes in the lymphocytes; endogenous in cells; host or cells: lymphocytes from venous blood of AD patients and control subjects (ex vivo)
Procedure: The capture antibody was the mouse anti-human Filamin A SC-17749 (Santa Cruz Biotechnology), and rabbit anti-human α7nAChR SC-5544 (Santa Cruz Biotechnology Santa Cruz Biotechnology) as the detection antibody. The assays were carried out in Santa Cruz Flat Bottom Plates.
PBS buffer used was 1×PBS (Mg-, and Ca-free) from Thermo Scientific, whereas PBST was 1×PBS+0.05% Tween®-20.
Coating buffer was prepared by dissolving 1.59 g of Na2CO3 in 0.9 L distilled H2O, to which was added 0.1 g NaN3 and 3.93 g of NaHCO3. The pH value was adjusted to 9.6, and the volume adjusted to 1 L with additional distilled H2O. Santa Cruz BSA blocking buffer supplemented with 1% BSA (sc-293965).
The HRP Detection Reagent (TMB) was prepared using 1-Step Ultra TMB-ELISA, (Cat#34028; Thermo Scientific). Standard protocol using 100 μl of the TMB substrate solution per each microplate well, followed by 10-15 minute incubation (or until color develops) and stopping reaction by adding 100 μl of 2 M sulfuric acid to each well. Absorbance (OD450) measured at 450 nm. Santa Cruz BSA blocking buffer was used supplemented with 1% BSA (SC-293965), and assays were carried out using a Molecular Devices Spectramax™ PLUS ELISA plate reader at 450 nm.
AD patient samples: 20 microtubes (labeled #1-#20; 100 ul volume each) with AD patients lymphocytes were received frozen on dry ice. Samples were kept at −20° C. freezer for 1 hour, following thawing at 4° C. […] Ice-cold PBS (300 μl) was added and entire contents were centrifuged to remove insoluble debris.
Normal patient sample was prepared by following procedure: 8 mL of venous blood was collected into cat#362761 BD Vacutainer™ CPT tube (cell preparation tube with sodium citrate) and following manufacturer's recommended protocol for white blood cells isolation (including two centrifugation/PBS wash steps). […] Ice-cold PBS (300 μl) was added and entire content was centrifuged to remove insoluble debris, resulting in “NP sample”.
Compound C0105 treatment was performed using AD patient white blood cells resuspended in 1×PBS and treated with: a) 10 μM Compound C0105 (final concentration), and b) control (PBS only) for 60 minutes at 37° C. (total volume is 400 μl of each sample).
Anti-Filamin A antibody (SC-17749) was diluted in Coating Buffer (at dilution ratio of 1:30) and 100 μl sample loaded per well and incubated 2.5 hours at room temperature (RT). The plate was covered with adhesive cover to prevent evaporation. Followed by washing of the microtiter plate with 150 μl of Blocking Buffer (supplemented with 1% BSA) and added 100 μl of Blocking Buffer to the wells for 30 minutes at RT.
AD samples (AD patients lymphocytes, as described above) were used to generate serial dilution series samples (dilution performed in PBS) and 100 μl sample loaded per well and incubated 1 hour at RT (total protein concentration is indicated as established by Bradford assay, as described above). The plate was covered with adhesive cover to prevent evaporation, followed by washing each well two times with 160 μl PBST Buffer.
After washing of the microtiter plate with washing buffer, 100 μl of α7nAChR primary antibody (SC-5544) were added per well (1:50 dilution ratio) in 1×PBS and incubated for 1 hour at RT.

α7nAChR-FLNA association = target: T2, α7nAChR-FLNA association (Rattus norvegicus, UniProt A0A8I5ZV49); assay: Rat frontal cortical synaptosomes treated with Aβ42, anti-FLNA immunoprecipitation / Western blot; format: cell-based; conditions: 1 or 10 nM compound, simultaneously or 10 min prior to 0.1 μM Aβ42
T2 construct: from tissue; host or cells: rat frontal cortical synaptosomes
Description: The α7nAChR-FLNA complexes in the solubilized synaptosomes were immunoprecipitated with immobilized anti-FLNA and the α7nAChR and FLNA levels in the anti-FLNA immunoprecipitates determined by Western blotting (FIG. 14A) and quantified by densitometry for illustrative compounds (FIG. 14B). n=3. […] The letter designation “M” that accompanies many of the “C-series” compounds is omitted from FIG. 14, the remaining figures and most discussions of the figures and compounds hereinafter for ease in expression. Structural formulas of the compounds used in this and the other figures are provided hereinafter.
(§1) The complexes in the solubilized synaptosomes, and α7nAChR, TLR4 and FLNA levels in the anti-FLNA immunoprecipitates were determined by Western blotting (FIG. 15A) in which numerals outside of and to the left of the blots are as discussed before. Amounts present in the blots were quantified by densitometry (FIG. 15B). […] Structural formulas of the compounds used in this and the other figures are provided hereinafter.

TLR4/FLNA = target: T3, TLR4/FLNA (Rattus norvegicus, UniProt A0A8I5ZV49); assay: as above; format: cell-based; conditions: 1 or 10 nM compound, simultaneously or 10 min prior to 0.1 μM Aβ42; Dunnett's test
T3 construct: from tissue; host or cells: rat frontal cortical synaptosomes
Procedure: as §1

TLR4/FLNA complexes = TLR4/FLNA complexes (Homo sapiens, UniProt P21333); assay: Protein A and Protein G capture plate assay in lymphocytes; conditions: 1 nM
Sequence of TLR4/FLNA complexes (P21333 2-2647 limits assumed, one chain of several): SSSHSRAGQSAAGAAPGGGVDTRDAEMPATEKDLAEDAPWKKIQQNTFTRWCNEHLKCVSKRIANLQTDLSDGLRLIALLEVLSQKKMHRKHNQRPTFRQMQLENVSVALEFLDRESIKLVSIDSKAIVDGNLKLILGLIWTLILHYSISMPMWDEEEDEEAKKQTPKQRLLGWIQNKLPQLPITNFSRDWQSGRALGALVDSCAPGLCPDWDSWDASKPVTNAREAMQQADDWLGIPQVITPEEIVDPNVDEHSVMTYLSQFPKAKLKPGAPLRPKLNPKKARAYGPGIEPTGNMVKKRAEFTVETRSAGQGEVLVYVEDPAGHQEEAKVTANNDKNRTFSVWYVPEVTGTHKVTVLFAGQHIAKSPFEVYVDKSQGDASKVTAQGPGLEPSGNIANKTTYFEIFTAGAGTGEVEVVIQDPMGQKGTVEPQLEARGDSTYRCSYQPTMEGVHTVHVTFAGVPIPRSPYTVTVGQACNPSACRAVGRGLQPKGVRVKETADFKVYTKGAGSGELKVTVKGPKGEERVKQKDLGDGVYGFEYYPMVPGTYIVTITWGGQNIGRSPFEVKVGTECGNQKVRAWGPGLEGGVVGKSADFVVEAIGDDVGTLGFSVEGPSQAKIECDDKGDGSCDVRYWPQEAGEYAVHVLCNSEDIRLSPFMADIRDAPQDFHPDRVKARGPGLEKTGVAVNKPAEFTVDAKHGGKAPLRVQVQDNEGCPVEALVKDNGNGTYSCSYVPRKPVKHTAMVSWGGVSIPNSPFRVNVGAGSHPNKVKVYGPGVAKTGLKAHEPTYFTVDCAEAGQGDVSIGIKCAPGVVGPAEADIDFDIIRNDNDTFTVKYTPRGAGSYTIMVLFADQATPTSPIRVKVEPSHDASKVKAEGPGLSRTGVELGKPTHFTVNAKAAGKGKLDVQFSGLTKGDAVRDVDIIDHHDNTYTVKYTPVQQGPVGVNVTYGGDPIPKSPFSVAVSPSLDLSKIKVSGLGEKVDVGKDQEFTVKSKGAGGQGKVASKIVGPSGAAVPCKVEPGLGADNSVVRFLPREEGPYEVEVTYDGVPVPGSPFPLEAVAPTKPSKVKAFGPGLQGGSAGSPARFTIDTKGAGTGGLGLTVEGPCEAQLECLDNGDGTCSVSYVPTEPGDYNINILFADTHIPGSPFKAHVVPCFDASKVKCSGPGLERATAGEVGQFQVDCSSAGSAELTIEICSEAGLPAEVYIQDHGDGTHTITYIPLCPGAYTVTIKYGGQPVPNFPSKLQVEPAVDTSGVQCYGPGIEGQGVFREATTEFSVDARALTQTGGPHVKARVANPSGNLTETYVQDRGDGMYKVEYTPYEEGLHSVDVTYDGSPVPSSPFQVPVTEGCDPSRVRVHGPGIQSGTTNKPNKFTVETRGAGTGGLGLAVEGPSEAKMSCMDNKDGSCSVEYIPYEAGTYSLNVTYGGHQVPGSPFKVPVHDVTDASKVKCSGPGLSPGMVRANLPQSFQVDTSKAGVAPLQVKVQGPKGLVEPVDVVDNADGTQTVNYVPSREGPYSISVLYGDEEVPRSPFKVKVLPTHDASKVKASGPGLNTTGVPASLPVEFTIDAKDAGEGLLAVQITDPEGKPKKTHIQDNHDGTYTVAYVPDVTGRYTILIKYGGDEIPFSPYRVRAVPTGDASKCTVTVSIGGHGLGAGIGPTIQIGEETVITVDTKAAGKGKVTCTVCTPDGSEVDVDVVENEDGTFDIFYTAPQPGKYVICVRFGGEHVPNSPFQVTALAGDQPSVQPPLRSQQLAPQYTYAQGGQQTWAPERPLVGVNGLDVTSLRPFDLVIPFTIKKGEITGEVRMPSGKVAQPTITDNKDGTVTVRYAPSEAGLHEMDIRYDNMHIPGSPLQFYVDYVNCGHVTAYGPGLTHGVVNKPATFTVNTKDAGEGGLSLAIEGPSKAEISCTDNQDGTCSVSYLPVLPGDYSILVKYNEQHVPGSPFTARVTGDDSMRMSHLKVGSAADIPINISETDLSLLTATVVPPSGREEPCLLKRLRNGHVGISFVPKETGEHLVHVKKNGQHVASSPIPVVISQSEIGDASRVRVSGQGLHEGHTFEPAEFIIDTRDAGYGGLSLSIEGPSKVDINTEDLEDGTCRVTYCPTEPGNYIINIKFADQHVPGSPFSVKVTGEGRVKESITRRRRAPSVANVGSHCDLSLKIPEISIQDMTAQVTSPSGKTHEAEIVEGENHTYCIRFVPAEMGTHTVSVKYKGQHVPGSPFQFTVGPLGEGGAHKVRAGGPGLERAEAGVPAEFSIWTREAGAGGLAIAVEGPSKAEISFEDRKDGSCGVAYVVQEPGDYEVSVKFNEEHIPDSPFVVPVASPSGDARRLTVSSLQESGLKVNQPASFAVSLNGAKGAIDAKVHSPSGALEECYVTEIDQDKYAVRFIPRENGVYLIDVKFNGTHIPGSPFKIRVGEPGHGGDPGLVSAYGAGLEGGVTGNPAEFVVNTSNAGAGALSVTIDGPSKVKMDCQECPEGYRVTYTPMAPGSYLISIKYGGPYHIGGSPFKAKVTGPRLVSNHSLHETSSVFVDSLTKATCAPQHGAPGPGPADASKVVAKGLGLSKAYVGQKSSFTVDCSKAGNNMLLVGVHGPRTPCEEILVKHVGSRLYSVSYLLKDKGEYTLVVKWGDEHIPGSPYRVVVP

T1 sequence (P21333 2-2647 limits assumed, one chain of several): as above

## CN1CCC2(CC1)NCC(=O)N2Cc1ccccc1 [Compound C0105]
α7nAChR-FLNA complex; 10 μM, AD lymphocytes
  Effect on amount of α7nAChR associated with FLNA (in words): significant reduction
α7nAChR-FLNA complex; 10 μM, YCI lymphocyte preparation
  Effect on amount of α7nAChR/FLNA complex (in words): substantially no difference
α7nAChR-FLNA complex; 1.25 (mg) lysate per well
  Optical Density α7nAChR/FLNA (OD450), average: 0.1572
α7nAChR-FLNA complex; 2.5 (mg) lysate per well
  Optical Density α7nAChR/FLNA (OD450), average: 0.2261
α7nAChR-FLNA complex; 5 (mg) lysate per well
  Optical Density α7nAChR/FLNA (OD450), average: 0.291
α7nAChR-FLNA complex; 10 (mg) lysate per well
  Optical Density α7nAChR/FLNA (OD450), average: 0.3349
α7nAChR-FLNA complex; 20 (mg) lysate per well
  Optical Density α7nAChR/FLNA (OD450), average: 0.4504
α7nAChR-FLNA association
  Effect on Aβ42-induced α7nAChR-FLNA association (in words): reduce α7nAChR-FLNA association
TLR4/FLNA
  TLR4/FLNA ratio versus Aβ42 alone (in words): statistically different from Aβ42 alone
TLR4/FLNA complexes; AD lymphocytes
  Decrease in amount of TLR4 FLNA complexes: approximately 50%
TLR4/FLNA complexes; YCI lymphocytes
  Response of TLR4/FLNA complexes (in words): essentially non-responsive
